Key:
rats [1] = details: cited from earlier work
rats [2] = details: cited from earlier work; remark: listed apart in the source
PDE10A = PDE10A (UniProt Q9Y233); assay: Measurement of PDE activity (HTRF cAMP assay, recombinant enzyme); assay type: biochemical; details: 20 nM cyclic nucleotide substrate, 60 minutes at 29 C
Protocol: The recombinant PDE proteins are used in in vitro enzymatic reaction for measurement of PDE activity. These recombinant proteins, including PDE10A (human, rat and mouse PDE10) and isoforms of PDEs 1, 3, 4, and 5, were purchased from commercial vendor BPS Bioscience. The enzymatic activity of PDEs was determined by cAMP measurement kit from CisBio (IBA) using HTRF technology.
The PDE enzymatic reaction was carried out in assay buffer (20 mM Tris-HCl pH7.5, 10 mM MgCl2, 0.1% bovine serum albumin) containing enzyme and substrate. The PDE enzymes concentration ranged from 10 pM-250 pM, depending on each enzyme's specific activity. The substrate cyclic nucleotide (cAMP or cGMP) concentration used in the assay was 20 nM for PDE10, and 100 nM for other PDEs. The inhibitory effect of compound was determined by incubating various concentration of inhibitor in the enzymatic assay. Typically, compound was serial diluted in DMSO then further diluted in assay buffer. Next, the compound at varying concentration was mixed with PDE enzyme. The reaction was initiated by addition of cyclic nucleotide substrate, and incubated for 60 minutes at 29 C. The reaction was stopped by addition of lysis buffer from assay kit. The cAMP-d2 and anti-cAMP cryptate in the lysis buffer detected the level of cAMP left from the PDE hydrolysis reaction. The PDE activity is reversely correlated with the amount of cAMP left in the reaction and can be converted to the percent activity of an uninhibited control (100%). Thus, IC50 value of inhibitor can be obtained by plotting inhibitor concentration against PDE activity at that concentration.

[3] = Determination of the microsomal half-life / microsomal clearance, rat liver microsomes; details: 0.5 μM test substance, 0.25 mg microsomal protein/ml, pH 7.4, 37° C., NADPH
Protocol: (§1) The test substances were incubated in a concentration of 0.5 μM as follows:
(§2) 0.5 μM test substance are preincubated together with liver microsomes from different species (from rat, human or other species) (0.25 mg of microsomal protein/ml) in 0.05 M potassium phosphate buffer of pH 7.4 in microtiter plates at 37° C. for 5 min. The reaction is started by adding NADPH (1 mg/mL). After 0, 5, 10, 15, 20 and 30 min, 50 μl aliquots are removed, and the reaction is immediately stopped and cooled with the same volume of acetonitrile. The samples are frozen until analyzed. The remaining concentration of undegraded test substance is determined by MSMS. The half-life (T½) is determined from the gradient of the signal of test substance/unit time plot, it being possible to calculate the half-life of the test substance, assuming first order kinetics, from the decrease in the concentration of the compound with time. The microsomal clearance (mCl) is calculated from mCl=ln 2/T½/(content of microsomal protein in mg/ml)×1000 [ml/min/mg]

[4] = Determination of the microsomal half-life / microsomal clearance, human liver microsomes; details: 0.5 μM test substance, 0.25 mg microsomal protein/ml, pH 7.4, 37° C., NADPH
Protocol: as §1, §2

IC50 (PDE10A) [nM]	Rat mCl [3]	Human mCl [4]	SMILES	catalepsy on its own (rats [1]; alone)	cataleptic effect of the D2 receptor antagonist haloperidol (rats [1]; with haloperidol)	hyperactivity induced by PCP (rats [2]; PCP-induced)	reduction of amphetamine-induced hyperactivity (rats [2]; amphetamine-induced)
			COc1ccc(Cc2nccc3cc(OC)c(OC)cc23)cc1OC [Papaverine, papaverine]	did not cause catalepsy on its own	potentiated the cataleptic effect	reduced hyperactivity	insignificant
> 500	+++ (+++ <10 μl min^−1 mg^−1)	+++ (+++ <10 μl min^−1 mg^−1)	Cn1cc2c(c(-c3ccncc3)c1=O)C(=O)N(CCc1nc3ccccc3s1)C2 [Example 32, 2-[2-(1,3-benzothiazol-2-yl)ethyl]-5-methyl-7-(4-pyridyl)-3,5-dihydro-2H-pyrrolo[3,4-c]pyridine-1,6-dione]				
> 500	++ (++: <100 μl min^−1 mg^−1)	+++ (+++ <10 μl min^−1 mg^−1)	Cn1cc2c(c(-c3cccnc3)c1=O)C(=O)N(CCc1nc3ccccn3n1)C2 [Example 26, 5-Methyl-7-pyridin-3-yl-2-(2-[1,2,4]triazolo[1,5-a]pyridin-2-yl-ethyl)-3,5-dihydro-2H-pyrrolo[3,4-c]pyridine-1,6-dione]				
> 500	++ (++: <100 μl min^−1 mg^−1)	++ (++: <100 μl min^−1 mg^−1)	Cn1cc2c(c(-c3cccnc3)c1=O)C(=O)N(CCc1ccc3ccccc3n1)C2 [Example 13, 5-Methyl-7-pyridin-3-yl-2-(2-quinolin-2-yl-ethyl)-3,5-dihydro-2H-pyrrolo[3,4-c]pyridine-1,6-dione]				
< 100	++ (++: <100 μl min^−1 mg^−1)	++ (++: <100 μl min^−1 mg^−1)	CC(C)n1cc2c(c(N3CCOCC3)c1=O)C(=O)N(CCc1ccc3ccccc3n1)C2 [Example 17, 5-Isopropyl-7-morpholin-4-yl-2-(2-quinolin-2-yl-ethyl)-3,5-dihydro-2H-pyrrolo[3,4-c]pyridine-1,6-dione]				
< 100	++ (++: <100 μl min^−1 mg^−1)	++ (++: <100 μl min^−1 mg^−1)	CCn1cc2c(c(N3CCOCC3)c1=O)C(=O)N(CCc1ccc3ccccc3n1)C2 [Example 16, 5-Ethyl-7-morpholin-4-yl-2-(2-quinolin-2-yl-ethyl)-3,5-dihydro-2H-pyrrolo[3,4-c]pyridine-1,6-dione]				
> 500	+++ (+++ <10 μl min^−1 mg^−1)	++ (++: <100 μl min^−1 mg^−1)	CN1CCN(c2c3c(cn(C)c2=O)C(=O)N(CCc2ccc4ccccc4n2)C3)CC1 [Example 7, 5-Methyl-7-(4-methyl-piperazin-1-yl)-2-(2-quinolin-2-yl-ethyl)-1,2-dihydro-5H-pyrrolo[3,4-c]pyridine-3,6-dione]				
200 to 500	++ (++: <100 μl min^−1 mg^−1)	++ (++: <100 μl min^−1 mg^−1)	Cn1cc2c(c(-c3cccnc3)c1=O)C(=O)N(CCc1nc3ccccc3n1C)C2 [Example 21, 5-Methyl-2-[2-(1-methyl-1H-benzoimidazol-2-yl)-ethyl]-7-pyridin-3-yl-3,5-dihydro-2H-pyrrolo[3,4-c]pyridine-1,6-dione]				

Reference: US9475808B2, “Inhibitor compounds of phosphodiesterase type 10A” (AbbVie Deutschland GmbH & Co. KG, priority 2013, dated 2016)
